The values below come from patent publication US6380230B1, “Carboxamidothiazole derivatives, preparation, pharmaceutical compositions containing them” (Sanofi-Synthelabo, priority 1997, dated 2002).

The target in experiment [1] is T1, human CCK-A receptor (Homo sapiens, UniProt P32238).
T1 construct: expressed in transfected cells; host or cells: 3T3 cells
T1 sequence (P32238 1-428): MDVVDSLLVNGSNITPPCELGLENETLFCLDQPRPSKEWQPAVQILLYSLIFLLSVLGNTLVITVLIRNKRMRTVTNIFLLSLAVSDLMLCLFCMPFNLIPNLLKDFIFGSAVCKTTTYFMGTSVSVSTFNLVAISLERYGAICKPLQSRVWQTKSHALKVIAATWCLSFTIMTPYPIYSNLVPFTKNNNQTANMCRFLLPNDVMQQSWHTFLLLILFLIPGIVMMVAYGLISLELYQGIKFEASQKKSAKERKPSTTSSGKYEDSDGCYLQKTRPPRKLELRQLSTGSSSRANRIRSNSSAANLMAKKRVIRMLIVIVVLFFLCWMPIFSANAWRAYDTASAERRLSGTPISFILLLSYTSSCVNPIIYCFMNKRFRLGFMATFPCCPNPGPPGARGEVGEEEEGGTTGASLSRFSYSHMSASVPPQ
Briefly: displacement of [125I]-CCK from 3T3 cells expressing the human CCK-A recombinant receptor. It is filed as binding. As to conditions: read-out: affinity for the human CCK-A receptor (IC50). In general terms: Displacement assays read how much labelled ligand stays bound in the presence of the test substance.

The target of another experiment is T2, human CCK-B receptor (Homo sapiens, UniProt P32239).
T2 sequence (P32239 1-447): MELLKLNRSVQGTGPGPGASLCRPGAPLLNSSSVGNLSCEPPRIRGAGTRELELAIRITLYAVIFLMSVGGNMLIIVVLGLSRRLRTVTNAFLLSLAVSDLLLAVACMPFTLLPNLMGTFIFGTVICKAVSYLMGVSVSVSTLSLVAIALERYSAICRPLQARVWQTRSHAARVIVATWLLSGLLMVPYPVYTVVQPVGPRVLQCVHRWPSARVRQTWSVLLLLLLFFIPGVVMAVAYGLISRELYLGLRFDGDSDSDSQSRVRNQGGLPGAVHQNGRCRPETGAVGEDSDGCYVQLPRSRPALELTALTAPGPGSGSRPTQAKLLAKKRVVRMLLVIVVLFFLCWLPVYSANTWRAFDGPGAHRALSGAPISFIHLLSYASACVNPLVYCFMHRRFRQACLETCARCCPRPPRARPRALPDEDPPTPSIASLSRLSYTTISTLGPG
Briefly: in vitro binding to the human CCK-B receptor. The settings on record: read-out: affinity for the human CCK-B receptor (IC50).

Experiment [2] addresses T1, human CCK-A receptor. Put plainly: mobilization of intracellular calcium ([Ca++]i, Fura-2) in 3T3 cells expressing the human CCK-A receptor. It is filed as cell-based. As to the method:
The calcium concentration [Ca^++]i is evaluated with Fura-2 as fluorescent probe, by the double excitation wavelength method. The ratio of the fluorescence emitted at two wavelengths gives the concentration of [Ca^++]i after calibration (Grynkiewicz G. et al., J. Biol. Chem., 1985, 260, 3440-3450).
A general note: A change in cytosolic calcium serves as a functional read-out for many receptors and channels.

Experiment [3] has as its system Female Swiss albino CD1 mice. Put plainly: gastric drainage (charcoal meal) in mice, intraperitoneal administration. Type of experiment: in vivo. The settings on record: intraperitoneally. The method, then:
The compounds of the present invention were also studied in vivo, by evaluating their capacity to block gastric drainage in mice.
A study of the agonist effect of the compounds on gastric drainage was carried out as follows. Female Swiss albino CD1 mice (20-25 g) are placed on a solid fast for 18 hours. On the day of the experiment, the products (as a suspension in 1% carboxymethyl cellulose solution or in 0.6% methylcellulose solution) or the corresponding vehicle are administered intraperitoneally, 30 minutes before administering a charcoal meal (0.3 ml per mouse of a suspension in water of 10% charcoal powder, 5% gum arabic and 1% carboxymethyl cellulose or 0.6% methyl cellulose). The mice are sacrificed five minutes later by cervical dislocation, and gastric drainage is defined as the presence of charcoal in the intestine beyond the pyloric sphincter (Eur. J. Pharmacol., 1993, 232, 13-19).

With `COc1cc(-c2nc(NC(=O)c3cc4cc(C)cc(C)c4n3CC(=O)O)sc2CCC2CCCCC2)c(OC)cc1Cl.O=C(O)C(F)(F)F` [Example 5, 2-(4-(4-Chloro-2,5-dimethoxyphenyl)-5-(2-cyclohexylethyl)-2-thiazolylcarbamoyl)-5,7-dimethyl-1-indoleacetic acid trifluoroacetic acid.], the half-inhibitory concentration (IC50) on human CCK-A receptor [1] was determined as 0.56 nM. Also, the concentration for half-maximal inhibition (IC50) at human CCK-B receptor amounted to 162 nM. For the same compound, at human CCK-A receptor [2] (increase to the same level as CCK itself), the “agonist behaviour on intracellular calcium relative to CCK” value is “total agonist”. In addition, the EC50 at human CCK-A receptor [2] (read-out: EC50 (effective concentration which induces 50% of the effect of CCK) for increase in intracellular calcium concentration, 3T3 cells expressing human CCK-A receptor) was found to be 1.27 nM. Besides, in experiment [3], the “ED50 on gastric drainage” value is 1.9 µg/kg and the “effect on gastric drainage” value is “completely inhibits gastric drainage”.

Broadly, the IC50 is the concentration that inhibits the measured activity by half.
